Laboratory results as given in patent publication US20120009164A1, “Increasing Probiotic Growth Rate and Activity Using Prebiotic Composition” (MASTER SUPPLEMENTS, INC., priority 2010, published 2012).

Columns and labels:
[1] = tested on: THERALAC® Lot # 32310A probiotic strains; test: Growth of the commercial probiotic Theralac in MRS broth (Example 10); format: cell-based, Lactobacillus and Bifidobacterium strains; conditions: for Lactic Acid % / pH / NTU (Turbidity): additive 0.1% in MRS (polysorbate 80 control: 1.0 g per liter); for NTU (Turbidity): inoculated at 0.1% with THERALAC
Description: MRS broth was prepared with (for controls) and without (for tests) polysorbate 80 and filled into 1 liter screw cap flasks at 500 ml each and autoclaved at 121° C. for 30 minutes. Various lecithin and/or oleic acid additives, or nothing (negative control), was added to the tests flasks prior to autoclaving. The flasks were then tempered to 37° C. in a water bath and inoculated at 0.1% with […]® Lot # 32310A, a commercial probiotic product (Master Supplements, Inc., Victoria, Minn.). Capsules of […]® were opened and the contents mixed aseptically to serve as the inoculum source. At an inoculation rate of 0.1%, approximately 80 million CFU was added per ml of MRS media. […]® contains (formulation strength) the following probiotic strains at the approximate CFU values listed per gram: Lactobacillus acidophilus NCFM (LA-1): 30 billion CFU Bifidobacterium lactis Bl-04 (BL-34): 30 billion CFU Lactobacillus paracasei Lpc-37 (F-19): 14 billion CFU Lactobacillus rhamnosus Lr-32 (LR-44): 6 billion CFU Bifidobacterium lactis Bi-07: 8 billion CFU Turbidity, pH and titrations (made with 0.1 N NaOH and reported as % lactic acid) were made at various times up to 23 hours. The results are presented below in Table VI for the 12 and 23-hour analyses.

[2] = tested on: L. acidophilus NCFM (LA-1); test: Growth (turbidity) and lactic acid producing activity in MRS broth, L. acidophilus NCFM; format: cell-based, Lactobacillus acidophilus
Description: Prebiotic formulations are often probiotic strain dependent. […] At specified time intervals, a 30 ml sample from each flask was aseptically transferred into a HACH […] Turbidimeter sample cell. The turbidity of each sample was read and the results were reported in NTU's. The same 30 ml sample used for the turbidity reading was transferred into a 250 ml glass beaker, and the pH was recorded. The sample was titrated using 0.1N NaOH to an endpoint of pH 6.8, and the quantity of NaOH used was recorded. The % Lactic Acid was calculated using the following formula: % Lactic Acid=((mls of 0.1N NaOH)×(0.1N)×(90 gm/mole)×(1 L/1000 ml))×100 mls of sample % Lactic Acid=(mls of 0.1N NaOH)×(0.9) (Results reported at 12 hours and 23 hours like: 12/23 in Table I below)

[3] = tested on: Lactobacillus salivarius Ls-33 (LS-30); test: Growth (turbidity) and lactic acid producing activity in MRS broth, L. salivarius Ls-33; format: cell-based; conditions: for Lactic Acid % / NTU (Turbidity) / pH: additive 0.1% in MRS (polysorbate 80 control: 1.0 g per liter)
Description: (§1) Prebiotic formulations are often probiotic strain dependent. Some Lactobacillus strains, for example, respond best to a form of lecithin derived from sunflowers (Sunflower Lecithin) while others show no preference to lecithin type and respond equally well to soy lecithin. Other strains show a synergistic response when lecithin is used together with oleic acid. […] Each flask was tempered to 37° C. and aseptically inoculated with 0.14 gm of the individual probiotic strains (in Examples 5 to 10 below) to be tested. At specified time intervals, a 30 ml sample from each flask was aseptically transferred into a HACH […] Turbidimeter sample cell. The turbidity of each sample was read and the results were reported in NTU's. The same 30 ml sample used for the turbidity reading was transferred into a 250 ml glass beaker, and the pH was recorded. The sample was titrated using 0.1N NaOH to an endpoint of pH 6.8, and the quantity of NaOH used was recorded. The % Lactic Acid was calculated using the following formula: % Lactic Acid=((mls of 0.1N NaOH)×(0.1N)×(90 gm/mole)×(1 L/1000 ml))×100 mls of sample % Lactic Acid=(mls of 0.1N NaOH)×(0.9) (Results reported at 12 hours and 23 hours like: 12/23 in Table V below)

[4] = tested on: Lactobacillus paracasei Lpc-37 (F-19); test: Growth (turbidity) and lactic acid producing activity in MRS broth, L. paracasei Lpc-37; format: cell-based; conditions: for Lactic Acid % / NTU (Turbidity) / pH: additive 0.1% in MRS (polysorbate 80 control: 1.0 g per liter)
Description: as §1, with “III” for “V”

[5] = tested on: Lactobacillus rhamnosus Lr-32 (LR-44); test: Growth (turbidity) and lactic acid producing activity in MRS broth, L. rhamnosus Lr-32; format: cell-based; conditions: for Lactic Acid % / NTU (Turbidity) / pH: additive 0.1% in MRS (polysorbate 80 control: 1.0 g per liter)
Description: as §1, with “IV” for “V”

[6] = tested on: Bifidobacterium lactis Bl-04 (BL-34); test: Growth (turbidity) and lactic acid producing activity in MRS broth, B. lactis Bl-04; format: cell-based; conditions: additive 0.1% in MRS (polysorbate 80 control: 1.0 g per liter)
Description: as §1, with “II” for “V”

[7] = additive 0.1% in MRS (polysorbate 80 control: 1.0 g per liter), 37° C., 12 hours
[8] = additive 0.1% in MRS (polysorbate 80 control: 1.0 g per liter), 37° C., 23 hours
[9] = additive 0.1% in MRS (polysorbate 80 control: 1.0 g per liter), 12 hours
[10] = additive 0.1% in MRS (polysorbate 80 control: 1.0 g per liter), 23 hours
[11] = additive 0.025% in MRS, 12 hours
[12] = additive 0.025% in MRS, 23 hours
[13] = at the concentrations studied (0.1% + 0.1%)

## polysorbate 80 [reference compound]
[1]; 12 hours
  Lactic Acid %: 1.42%
  pH: 3.9
  NTU (Turbidity): 3311 NTU
[1]; 23 hours
  Lactic Acid %: 1.84%
  pH: 3.7
  NTU (Turbidity): 3694 NTU
[2]; [7]
  NTU (Turbidity): 1855 NTU
[2]; [8]
  NTU (Turbidity): 2038 NTU
[2]; [9]
  Lactic Acid %: 1.09%
  pH: 4.2
[2]; [10]
  Lactic Acid %: 1.27%
  pH: 4.1
[3]; 12 hours
  Lactic Acid %: 1.42%
  NTU (Turbidity): 3426 NTU
  pH: 3.8
[3]; 23 hours
  Lactic Acid %: 1.68%
  NTU (Turbidity): 3931 NTU
  pH: 3.7
[4]; 12 hours
  Lactic Acid %: 0.99%
  NTU (Turbidity): 1664 NTU
  pH: 4.2
[4]; 23 hours
  Lactic Acid %: 1.39%
  NTU (Turbidity): 2824 NTU
  pH: 3.9
[5]; 12 hours
  Lactic Acid %: 1.12%
  NTU (Turbidity): 2804 NTU
  pH: 4.0
[5]; 23 hours
  Lactic Acid %: 1.67%
  NTU (Turbidity): 3776 NTU
  pH: 3.7
[6]; 12 hours
  Lactic Acid %: 0.57%
  NTU (Turbidity): 922 NTU
  pH: 4.8
[6]; 23 hours
  Lactic Acid %: 0.84%
  NTU (Turbidity): 1434 NTU
  pH: 4.5

## CCCCCCCC/C=C\CCCCCCCC(=O)O [Oleic Acid, oleic acid]
[1]; 0.1% inclusion rate in MRS
  effectiveness as polysorbate 80 replacement (conclusion): acceptable replacement value
[1]; 12 hours
  Lactic Acid %: 1.18%
  pH: 4.1
  NTU (Turbidity): 2775 NTU
[1]; 23 hours
  Lactic Acid %: 1.72%
  pH: 3.8
  NTU (Turbidity): 3529 NTU
[2]; 0.1% inclusion rate in MRS
  effectiveness as polysorbate 80 replacement (conclusion): somewhat effective
[2]; [11]
  Lactic Acid %: 0.70%
  pH: 4.5
[2]; [12]
  Lactic Acid %: 0.77%
  NTU (Turbidity): 603 NTU
  pH: 4.4
[2]; [7]
  NTU (Turbidity): 1451 NTU
[2]; [8]
  NTU (Turbidity): 1789 NTU
[2]; [9]
  Lactic Acid %: 1.03%
  pH: 4.3
[2]; [10]
  Lactic Acid %: 1.21%
  pH: 4.1
[3]; 0.1% in MRS, at 12 hours
  lag phase: a lag phase is apparent
[3]; 0.1% inclusion rate in MRS
  effectiveness as polysorbate 80 replacement (conclusion): not as good a replacement
[3]; 12 hours
  Lactic Acid %: 0.073%
  NTU (Turbidity): 1440 NTU
  pH: 4.4
[3]; 23 hours
  Lactic Acid %: 1.51%
  NTU (Turbidity): 3578 NTU
  pH: 3.8
[4]; 0.1% inclusion rate in MRS
  effectiveness as polysorbate 80 replacement (conclusion): not as effective a replacement for polysorbate 80 as sunflower lecithin
[4]; 12 hours
  Lactic Acid %: 0.33%
  NTU (Turbidity): 178 NTU
  pH: 5.1
[4]; 23 hours
  Lactic Acid %: 1.01%
  NTU (Turbidity): 1789 NTU
  pH: 4.1
[4]; [13]
  synergy of oleic acid with sunflower lecithin (conclusion): does not appear to be synergistic
[5]; 0.1% in MRS, at 12 hours
  lag phase: significant lag phase
[5]; 0.1% inclusion rate in MRS
  effectiveness as polysorbate 80 replacement (conclusion): not as good a replacement for polysorbate 80 as sunflower lecithin
[5]; 12 hours
  Lactic Acid %: 0.072%
  NTU (Turbidity): −30.9 NTU
  pH: 6.2
[5]; 23 hours
  Lactic Acid %: 1.05%
  NTU (Turbidity): 2644 NTU
  pH: 4.1
[5]; [13]
  synergy of oleic acid with sunflower lecithin (conclusion): not synergistic
